According to patent US4482553A, “Benzothienylglycyl cephalosporin derivatives” (priority 1983, dated 1984):
≈ marks a conversion by molar mass, not a printed value. Like-named read-outs stand apart in the source and are kept apart here.

What was measured:
Assay type in all cases: cell-based
[1] = system: Strep. D; test: standard in vitro agar dilution MIC (Table I), Strep. D
[2] = system: H. influ.; test: standard in vitro agar dilution MIC (Table I), H. influ.
Text: (§1) The antibacterial activity of several compounds of the invention has been determined in standard in vitro agar dilution assays against a variety of gram positive and gram negative microorganisms. The following Tables present typical minimum inhibitory concentrations (MIC's) in μg/ml for several compounds of the invention when evaluated against the indicated microorganisms. MIC's for several known compounds are also presented for comparison.

[3] = system: Klebsiella; test: standard in vitro agar dilution MIC (Table I), Klebsiella; details: Table I, agar dilution
[4] = system: Staph. epi; test: standard in vitro agar dilution MIC (Table I), Staph. epi
[5] = system: Staph. aureus; test: standard in vitro agar dilution MIC (Table I), Staph. aureus
[6] = system: E. coli; test: standard in vitro agar dilution MIC (Table I), E. coli; details: Escherichia coli
[7] = system: Strep. A; test: standard in vitro agar dilution MIC (Table I), Strep. A
[8] = system: Strep. PN; test: standard in vitro agar dilution MIC (Table I), Strep. PN; details: strain PARK
[9] = system: Staph. epi; test: Expanded Spectrum MIC (Table II), Staph. epi
Text: as §1

[10] = system: H. influ.; test: Expanded Spectrum MIC (Table II), H. influ.
Text: as §1

[11] = system: Staph. aureus; test: Expanded Spectrum MIC (Table II), Staph. aureus
Text: as §1

[12] = Klebsiella, strain X26, read-out: MIC
[13] = Klebsiella, strain X68, read-out: MIC
[14] = Table I, agar dilution, strain EPI1, read-out: MIC

CC1(C)S[C@@H]2[C@H](NC(=O)[C@H](N)c3ccccc3)C(=O)N2[C@H]1C(=O)O [Ampicillin, reference compound]
MIC ([1]; strain 2041, read-out: MIC): 2 µg/mL (≈ 5.72 µM) | MIC ([1]; strain X66, read-out: MIC): 4 µg/mL (≈ 11.4 µM) | MIC ([2]; strain 76): 16 µg/mL (≈ 45.8 µM) | MIC ([2]; strain C.L.): 0.5 µg/mL (≈ 1.43 µM) | MIC [3, 12]: 16 µg/mL (≈ 45.8 µM) | MIC [3, 13]: 16 µg/mL (≈ 45.8 µM) | MIC [4, 14]: 8 µg/mL (≈ 22.9 µM) | MIC ([5]; Staphylococcus aureus, strain S13E): 64 µg/mL (≈ 183 µM) | MIC ([6]; strain EC14): 4 µg/mL (≈ 11.4 µM) | MIC ([6]; strain N10): 8 µg/mL (≈ 22.9 µM)

CC1=C(C(=O)O)N2C(=O)[C@@H](NC(=O)[C@H](N)c3ccccc3)[C@H]2SC1 [Cephalexin, reference compound]
MIC ([2]; strain 76): 8 µg/mL (≈ 23 µM) | MIC ([2]; strain C.L.): 8 µg/mL (≈ 23 µM) | MIC [3, 12]: 4 µg/mL (≈ 11.5 µM) | MIC [3, 13]: 8 µg/mL (≈ 23 µM) | MIC [4]: 8 µg/mL (≈ 23 µM) | MIC [4, 14]: 32 µg/mL (≈ 92.1 µM) | MIC [7]: 0.5 µg/mL (≈ 1.44 µM) | MIC ([8]; read-out: MIC): 2 µg/mL (≈ 5.76 µM)

CC1=C(C(=O)O)N2C(=O)C(NC(=O)[C@H](N)c3cc4cc(Cl)ccc4s3)C2SC1 (stereo partly drawn) [Ex. 2, D-7-(5-Chloro-2-benzothienyl)glycylamido-3-methyl-3-cephem-4-carboxylic acid]
MIC ([9]; strain 219, read-out: MIC): 0.25 µg/mL (≈ 0.571 µM) | MIC ([9]; strain 269, read-out: MIC): 1 µg/mL (≈ 2.28 µM) | MIC ([9]; strain 270, read-out: MIC): 1 µg/mL (≈ 2.28 µM) | MIC ([9]; strain 285, read-out: MIC): 0.5 µg/mL (≈ 1.14 µM) | MIC ([9]; strain 286, read-out: MIC): 0.25 µg/mL (≈ 0.571 µM) | MIC ([9]; strain EPI1, read-out: MIC): 4 µg/mL (≈ 9.13 µM) | MIC ([10]; strain 76, read-out: MIC): 8 µg/mL (≈ 18.3 µM) | MIC ([10]; strain 1683, read-out: MIC): 1 µg/mL (≈ 2.28 µM) | MIC ([10]; strain C.L., read-out: MIC): 32 µg/mL (≈ 73.1 µM) | MIC ([10]; strain M366): > 64 µg/mL | MIC ([10]; strain STEL): > 64 µg/mL | MIC ([2]; strain 76, read-out: MIC): 0.5 µg/mL (≈ 1.14 µM) | MIC ([2]; strain C.L., read-out: MIC): 2 µg/mL (≈ 4.57 µM) | MIC [3, 12]: 32 µg/mL (≈ 73.1 µM) | MIC ([4]; Table I, agar dilution, strain 222, read-out: MIC): 1 µg/mL (≈ 2.28 µM) | MIC [4, 14]: 4 µg/mL (≈ 9.13 µM) | MIC ([7]; Table I, agar dilution, strain C203, read-out: MIC): 0.125 µg/mL (≈ 0.285 µM) | MIC ([5]; Staphylococcus aureus, strain V41, read-out: MIC): 32 µg/mL (≈ 73.1 µM) | MIC ([5]; Staphylococcus aureus, strain X1.1, read-out: MIC): 0.5 µg/mL (≈ 1.14 µM) | MIC ([5]; Staphylococcus aureus, strain X400, read-out: MIC): 64 µg/mL (≈ 146 µM) | MIC ([8]; read-out: MIC): 0.5 µg/mL (≈ 1.14 µM) | MIC ([11]; Staphylococcus aureus, strain 239, read-out: MIC): 0.5 µg/mL (≈ 1.14 µM) | MIC ([11]; Staphylococcus aureus, strain S224, read-out: MIC): 0.25 µg/mL (≈ 0.571 µM) | MIC ([11]; Staphylococcus aureus, strain S225, read-out: MIC): 0.25 µg/mL (≈ 0.571 µM) | MIC ([11]; Staphylococcus aureus, strain S226, read-out: MIC): 0.5 µg/mL (≈ 1.14 µM) | MIC ([11]; Staphylococcus aureus, strain S227, read-out: MIC): 0.25 µg/mL (≈ 0.571 µM) | MIC ([11]; Staphylococcus aureus, strain S228, read-out: MIC): 0.25 µg/mL (≈ 0.571 µM) | MIC ([11]; Staphylococcus aureus, strain S229, read-out: MIC): 0.5 µg/mL (≈ 1.14 µM) | MIC ([11]; Staphylococcus aureus, strain S230, read-out: MIC): 0.25 µg/mL (≈ 0.571 µM) | MIC ([11]; Staphylococcus aureus, strain S231, read-out: MIC): 0.25 µg/mL (≈ 0.571 µM) | MIC ([11]; Staphylococcus aureus, strain S234, read-out: MIC): 0.5 µg/mL (≈ 1.14 µM) | MIC ([11]; Staphylococcus aureus, strain S237, read-out: MIC): 0.5 µg/mL (≈ 1.14 µM) | MIC ([11]; Staphylococcus aureus, strain S238, read-out: MIC): 1 µg/mL (≈ 2.28 µM)

CC1=C(C(=O)O)N2C(=O)C(NC(=O)C(N)c3cc4c(s3)CCCC4)C2SC1 [Ex. 5, D-7-[(4,5,6,7-tetrahydro-2-benzothienyl)glycylamido]-3-methyl-3-cephem-4-carboxylic acid]
MIC ([9]; strain 219): 0.5 µg/mL (≈ 1.23 µM) | MIC ([9]; strain 269): 2 µg/mL (≈ 4.91 µM) | MIC ([9]; strain 270): 0.5 µg/mL (≈ 1.23 µM) | MIC ([9]; strain 285): 1 µg/mL (≈ 2.45 µM) | MIC ([9]; strain 286): 0.25 µg/mL (≈ 0.613 µM) | MIC ([9]; strain EPI1): 4 µg/mL (≈ 9.82 µM) | MIC ([10]; strain 76): 8 µg/mL (≈ 19.6 µM) | MIC ([10]; strain 105): 4 µg/mL (≈ 9.82 µM) | MIC ([10]; strain 158): 4 µg/mL (≈ 9.82 µM) | MIC ([10]; strain 164): 4 µg/mL (≈ 9.82 µM) | MIC ([10]; strain 169): 16 µg/mL (≈ 39.3 µM) | MIC ([10]; strain 171): 16 µg/mL (≈ 39.3 µM) | MIC ([10]; strain 312): 4 µg/mL (≈ 9.82 µM) | MIC ([10]; strain 1683): 4 µg/mL (≈ 9.82 µM) | MIC ([10]; strain 1930): 16 µg/mL (≈ 39.3 µM) | MIC ([10]; strain 4842): 4 µg/mL (≈ 9.82 µM) | MIC ([10]; strain C.L.): 16 µg/mL (≈ 39.3 µM) | MIC ([10]; strain HESS): 16 µg/mL (≈ 39.3 µM) | MIC ([10]; strain M366): > 64 µg/mL | MIC ([10]; strain M370): 4 µg/mL (≈ 9.82 µM) | MIC ([10]; strain M371): 4 µg/mL (≈ 9.82 µM) | MIC ([10]; strain R465): 16 µg/mL (≈ 39.3 µM) | MIC ([10]; strain STEL): > 64 µg/mL | MIC ([2]; strain 76): 4 µg/mL (≈ 9.82 µM) | MIC ([2]; strain C.L.): 16 µg/mL (≈ 39.3 µM) | MIC ([3]; strain X26): 2 µg/mL (≈ 4.91 µM) | MIC ([4]; Table I, agar dilution, strain 222): 0.5 µg/mL (≈ 1.23 µM) | MIC ([4]; Table I, agar dilution, strain EPI1): 2 µg/mL (≈ 4.91 µM) | MIC ([7]; Table I, agar dilution, strain C203): 0.06 µg/mL (≈ 0.147 µM) | MIC ([5]; strain S13E): 8 µg/mL (≈ 19.6 µM) | MIC ([5]; strain V41): 16 µg/mL (≈ 39.3 µM) | MIC ([5]; strain X1.1): 0.25 µg/mL (≈ 0.613 µM) | MIC ([5]; strain X400): 64 µg/mL (≈ 157 µM) | MIC [8]: 0.25 µg/mL (≈ 0.613 µM) | MIC ([11]; strain 239): 0.5 µg/mL (≈ 1.23 µM) | MIC ([11]; strain S224): 0.5 µg/mL (≈ 1.23 µM) | MIC ([11]; strain S225): 0.5 µg/mL (≈ 1.23 µM) | MIC ([11]; strain S226): 0.5 µg/mL (≈ 1.23 µM) | MIC ([11]; strain S227): 0.5 µg/mL (≈ 1.23 µM) | MIC ([11]; strain S228): 0.5 µg/mL (≈ 1.23 µM) | MIC ([11]; strain S229): 1 µg/mL (≈ 2.45 µM) | MIC ([11]; strain S230): 0.5 µg/mL (≈ 1.23 µM) | MIC ([11]; strain S231): 0.25 µg/mL (≈ 0.613 µM) | MIC ([11]; strain S234): 1 µg/mL (≈ 2.45 µM) | MIC ([11]; strain S237): 0.5 µg/mL (≈ 1.23 µM) | MIC ([11]; strain S238): 1 µg/mL (≈ 2.45 µM)
